{
  "source": "patent US10238614B2",
  "about": "“Uses of 6-aminohexanoic acid to manage bleeding conditions” (EMORY UNIVERSITY, priority 2013, dated 2019)",
  "key": {"[1]": {"system": "patients with thrombocytopenic hemorrhage / severely thrombocytopenic patients with hematological malignancies", "conditions": "cited from earlier work"}, "[2]": {"system": "thrombocytopenic patients with hematological malignancies", "assay": "Retrospective study of prophylactic oral EACA in outpatients with chronic transfusion-dependent thrombocytopenia", "assay_type": "in vivo, human", "excerpt": "Patients were managed in the outpatient setting despite their severe thrombocytopenia and received EACA as a substitution for prophylactic, threshold directed platelet transfusion.\nPatients with chronic transfusion dependent thrombocytopenia who received prophylactic EACA in the outpatient setting were identified through a computerized database search. After initiation of EACA, prophylactic threshold-driven platelet transfusion was discontinued and patients received only therapeutic platelet transfusion in case of bleeding, except when admitted to the inpatient ward. In the inpatient ward, prophylactic platelets were routinely infused when platelets were <10×10^9/L. The number of platelets transfused in the hospital in the absence of bleeding was censored. Patient demographics, diagnosis, treatment, platelet counts, duration of thrombocytopenia, transfusion history, bleeding and outcomes were captured onto study-specific case report forms. Bleeding was captured regardless of patient's location (out-patient or wards) and retrospectively scored based on the ITP WHO classification: grade 1=petechial bleed, grade 2=clinically mild blood loss, grade 3=gross blood loss requiring transfusion, and grade 4=retinal, cerebral, or debilitating blood loss. Statistics were descriptive.\nPatients were monitored in the outpatient clinic, with a CBC obtained at least once a week."}, "[3]": {"conditions": "ITP WHO bleeding classification grade, median (range)"}, "[4]": {"conditions": "severe and refractory thrombocytopenic patients not receiving prophylactic platelet transfusion"}},
  "data": [
    {"smiles": "NCCCCCC(=O)O", "note": "[EACA, 6-aminohexanoic acid]", "values": [
      {"measurement": "effect on transfusion requirements", "setting": "[1]; patients with thrombocytopenic hemorrhage, Kalmadi et al., Cancer 2006", "result": "reduces transfusion requirements"},
      {"measurement": "effect on bleeding", "setting": "[1]; severely thrombocytopenic patients with hematological malignancies, Antun et al., Cancer 2013", "result": "prevents bleeding"},
      {"measurement": "tolerability", "setting": "[2]; 1 gram orally twice daily, median 47 days", "result": "overall well tolerated"},
      {"measurement": "patients who discontinued EACA due to platelet recovery", "setting": "[2]; 18 of 44 patients", "result": 41, "unit": "%"},
      {"measurement": "discontinuation due to intolerance", "setting": "[2]; 44 patients", "result": "no patients discontinued EACA due to intolerance"},
      {"measurement": "venous thromboembolic event", "setting": "[2]; 44 patients", "result": "No patient experienced a venous thromboembolic event"},
      {"measurement": "patients who received platelet transfusions while on EACA", "setting": "[2]; 44 patients, EACA 1 gram orally twice daily, no prophylactic platelet transfusions, 7/44", "result": 16, "unit": "%"},
      {"measurement": "median bleeding score for the 19 minor bleeding events", "setting": "[2]; [3]", "result": "1 (1-2)"},
      {"measurement": "median score for the 10 bleeding episodes treated with transfusion", "setting": "[2]; [3]", "result": "2 (2-4)"},
      {"measurement": "patients with minor mucocutaneous bleeding that resolved spontaneously and did not require platelet transfusions", "setting": "[2]; eleven of 44 patients", "result": 25, "unit": "%"},
      {"measurement": "patients with grade 3 bleeding", "setting": "[2]; hematochezia from a pre-existing rectal ulcer", "result": 1, "unit": "patient"},
      {"measurement": "bleeding episodes treated with platelet transfusions", "setting": "[2]; in 7/44 patients while on EACA", "result": 10},
      {"measurement": "episodes of minor mucocutaneous bleeding that resolved spontaneously", "setting": "[2]; in eleven patients, epistaxis, bruises, oral, vaginal", "result": 19, "unit": "episodes"},
      {"measurement": "grade 2 mucocutaneous bleeds requiring transfusion", "setting": "[2]; in the other 5 patients: hemorrhoid, epistaxis, oral, bladder and vaginal", "result": 8},
      {"measurement": "grade 3-4 bleedings", "setting": "[2]; in the setting of a trauma and from a pre-existing condition", "result": "Two"},
      {"measurement": "major spontaneous bleeds", "setting": "[2]; median platelet counts 8×10^9/L, no prophylactic platelet transfusions, median 47 days, up to 209 days", "result": "no major spontaneous bleeds were observed"},
      {"measurement": "platelet refractory patients with bleeding episodes", "setting": "[2]; of the 10 platelet refractory patients, mucocutaneous (3 grade 1, 5 grade 2 and 1 grade 3)", "result": 4},
      {"measurement": "patients who discontinued EACA due to the onset of hematuria", "setting": "[2]; one of 44 patients", "result": 2, "unit": "%"},
      {"measurement": "overall safety", "setting": "[2]; [4]", "result": "safe"},
      {"measurement": "risk of major spontaneous bleeding", "setting": "[2]; [4]", "result": "low risk of major spontaneous bleeding"},
      {"measurement": "patient-reported effect on petechiae and subcutaneous bleeds", "setting": "[2]; shortly after initiation of EACA", "result": "rapid disappearance of petechiae and resolution of subcutaneous bleeds"},
      {"measurement": "median platelet transfusions in transfused patients", "setting": "[2]; summary statement, 16% of patients transfused", "result": 4, "unit": "units"},
      {"measurement": "median number of platelets transfusions received to treat bleeding episodes", "setting": "[2]; the 7 transfused patients, median (range)", "result": "4 (range, 1-8)"},
      {"measurement": "patients with grade 4 bleeding", "setting": "[2]; traumatic intracranial hemorrhage secondary to motor vehicle accident", "result": 1, "unit": "patient"}
    ]}
  ]
}
